Laboratory results: patent publication US20220228126A1, “USE OF PCBP1 TO GENERATE INDUCED PLURIPOTENT STEM CELLS WHILE INHIBITING ONCOGENESIS” (priority 2019, published 2022)

Legend:
BCL-2 = experiment: qRT-PCR quantification of BCL-2 expression in cancer stem cells; type: cell-based, human; details: 10 μM niclosamide, DMSO base-line; U87-MG (CSC), DU-145 (CSC), MCF-7 (CSC)
Description: (§1) FIG. 28A-B: qRT-PCR quantification of c-Myc and BCL-2 expression in U87-MG(CSC) cells treated with DMSA or 10 μM niclosamide. For calculations: DMSO served as base-line in FIG. 28A. Mock-transfection served as base-line in FIG. 28B. Dotted line marks 1.5 fold change in y-axis, considered the benchmark for statistical significance.
as §1, with “29A-B:” for “28A-B:”, “DU-145 (CSC)” for “U87-MG(CSC)”, “29A.” for “28A.”, “29B.” for “28B.”
as §1, with “30A-B.” for “28A-B:”, “DU-145 (CSC)” for “U87-MG(CSC)”, “30A.” for “28A.”, “30B.” for “28B.”
(§2) U87-MG (CSC) were used to validate the NF-kB pathway. Cells were lysed using RIPA lysis buffer and 35 mcg cell lysate protein (determined by BCA assay) was loaded per well. […] The expression of c-Myc in the cells as measured by Western Blot was normalized. […] RNA levels were measured by qPRC using gene-specific Taqman probes for c-Myc and BCL-2. […]

c-Myc = experiment: qRT-PCR quantification of c-Myc expression in cancer stem cells; type: cell-based, human; details: 10 μM niclosamide, DMSO base-line; U87-MG (CSC), DU-145 (CSC), MCF-7 (CSC)
Description: as §1
as §1, with “29A-B:” for “28A-B:”, “DU-145 (CSC)” for “U87-MG(CSC)”, “29A.” for “28A.”, “29B.” for “28B.”
as §1, with “30A-B.” for “28A-B:”, “DU-145 (CSC)” for “U87-MG(CSC)”, “30A.” for “28A.”, “30B.” for “28B.”
as §2

[1] = test system: reactive oxygen species (ROS); details: mechanism shown in FIG. 25; cited from earlier work

O=C(Nc1ccc([N+](=O)[O-])cc1Cl)c1cc(Cl)ccc1O [niclosamide]
BCL-2 expression (BCL-2): significantly down-regulated
c-Myc expression (c-Myc): significantly down-regulated
intracellular ROS content [1]: elevates
